Patent US10993983B2, “Cyclic peptide epitopes and small-molecule mimics for inducing autophagy” (TRUSTEES OF TUFTS COLLEGE, priority 2016, dated 2021)
Marks after values point to notes of the source that are not given here. Bridges are numbered along the chain shown (N, C = ends). Where no end group is shown, it is not given here. [ ]: non-standard residue; d: D form. MP = not defined here

What was measured:
p62 = p62 degradation assay (p62/actin immunoblot);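 on Activity (μM) 10, p62/actin assay activity: HeLa cells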;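 on Activity (μM) 100, p62/actin assay activity: HeLa cells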;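 on Activity (μM) 20, p62/actin assay activity: HeLa cells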;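 on Activity (μM) 30, p62/actin assay activity: HeLa cells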;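 on Activity (μM) 50, p62/actin assay activity: HeLa cells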; assay type: cell-based; set-up: key: −: activity not reported; 0: decreased vs. WT; +: similar to WT; ++: modest increase vs. WT; +++: significant increase vs. WT; settings: for Activity (μM) 50, p62/actin assay activity: 50 μM; for Activity (μM) 100, p62/actin assay activity: 100 μM; for Activity (μM) 10, p62/actin assay activity: 10 μM; for Activity (μM) 20, p62/actin assay activity: 20 μM; for Activity (μM) 30, p62/actin assay activity: 30 μM; for Activity (μM) 10, starred cell, p62/actin assay activity: Table 8, 10 μM marked * (footnote: data taken at 20 instead of 30 μM)
Method: (§1) Cells were treated with peptide in OPTI-MEM (Thermo Scientific) acidified with 0.15% (v/v) 6N HCl for 3 hour. Cells were rinsed with Dulbecco's phosphate buffered saline (PBS) and lysed in lysis buffer (20 mM HEPES, 150 mM NaCl, 1 mM EDTA, 1% Triton X-100, protease inhibitor cocktail (Roche) on ice for 1 hour. Cell lysates were centrifuged at 16,000 g for 10 min at 4° C. and analyzed by SDS-PAGE and transferred to PVDF membranes. The membranes were blocked 5% non-fat dry milk (NFDM) in PBST (PBS+0.05% Tween-20) for 1 hour, then incubated overnight at 4° C. with primary antibody in 5% NFDM in PBST. The blots were washed with PBST and incubated with HRP-conjugated secondary antibodies diluted in 5% NFDM in PBST for 1 hour at room temperature. Membranes were washed with PBST and visualized with SuperSignal West Pico Chemiluminescent Substrate (Thermo Scientific). Semi-quantitative results were obtained by noting the lowest concentration at which both p62 degradation and LC3-I to LC3-II conversion were observed.
(§2) Compounds 1-10 were evaluated using the assays described in Examples 4 and 5. Activity for each compound was measured in the p62 degradation assay and the LC3 marker assay as described herein. The activity at each concentration of peptide is given as, for example, (0/+) where 0 would be the p62/actin assay activity and + would be the LC3 assay activity.

LC3 = LC3 marker assay (LC3-I to LC3-II conversion immunoblot);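 on Activity (μM) 10, LC3 assay activity: HeLa cells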;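 on Activity (μM) 100, LC3 assay activity: HeLa cells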;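 on Activity (μM) 20, LC3 assay activity: HeLa cells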;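 on Activity (μM) 30, LC3 assay activity: HeLa cells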;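 on Activity (μM) 50, LC3 assay activity: HeLa cells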; assay type: cell-based; set-up: key: −: activity not reported; 0: decreased vs. WT; +: similar to WT; ++: modest increase vs. WT; +++: significant increase vs. WT; settings: for Activity (μM) 50, LC3 assay activity: 50 μM; for Activity (μM) 100, LC3 assay activity: 100 μM; for Activity (μM) 10, LC3 assay activity: 10 μM; for Activity (μM) 20, LC3 assay activity: 20 μM; for Activity (μM) 30, LC3 assay activity: 30 μM; for Activity (μM) 10, starred cell, LC3 assay activity: Table 8, 10 μM marked * (footnote: data taken at 20 instead of 30 μM)
Method: as §1, §2

[1] = Table 8, control compound T25, first symbol
[2] = Table 8, control compound T25, second symbol
[3] = Table 3, control vehicle, first symbol of cell
[4] = Table 3, control vehicle, first symbol
[5] = Table 7, control compound T25, first symbol
[6] = Table 3, control vehicle, second symbol of cell
[7] = Table 3, control vehicle, second symbol
[8] = Table 7, control compound T25, second symbol

Row | Sequence | Activity (μM) 50, p62/actin assay activity (p62; [1]) | Activity (μM) 50, LC3 assay activity (LC3; [2]) | Activity (μM) 30, p62/actin assay activity (p62; [1]) | Activity (μM) 30, LC3 assay activity (LC3; [2]) | Activity (μM) 10, starred cell, p62/actin assay activity (p62; first symbol) | Activity (μM) 10, starred cell, LC3 assay activity (LC3; second symbol) | also measured
1 | RCNARCRIWR (H-R[dC]NAR[dC]RIWR; not fully specified (C-terminus); cysteine pairing not given here) [Compound 40] | 0/0 | 0/0 | – | – | – | – | Activity (μM) 100, p62/actin assay activity (p62; [1]): 0/0; Activity (μM) 100, LC3 assay activity (LC3; [2]): 0/0
2 | VCNACFHIWH [Compound 4] | – | – | – | – | – | – | Activity (μM) 10, p62/actin assay activity (p62; [3]): 0/0; Activity (μM) 20, p62/actin assay activity (p62; [4]): 0/0; Activity (μM) 30, p62/actin assay activity (p62; [5]): 0/0; Activity (μM) 50, p62/actin assay activity (p62; [4]): 0/0; Activity (μM) 50, p62/actin assay activity (p62; [5]): ++/++; Activity (μM) 100, p62/actin assay activity (p62; [4]): +++; Activity (μM) 100, p62/actin assay activity (p62; [5]): +++/+++; Activity (μM) 10, LC3 assay activity (LC3; [6]): 0/0; Activity (μM) 20, LC3 assay activity (LC3; [7]): 0/0; Activity (μM) 30, LC3 assay activity (LC3; [8]): 0/0; Activity (μM) 50, LC3 assay activity (LC3; [7]): 0/0; Activity (μM) 50, LC3 assay activity (LC3; [8]): ++/++; Activity (μM) 100, LC3 assay activity (LC3; [7]): +; Activity (μM) 100, LC3 assay activity (LC3; [8]): +++/+++
3 | VCNACFHIWH [Compound 9] | – | – | – | – | – | – | Activity (μM) 10, p62/actin assay activity (p62; [3]): 0/0; Activity (μM) 20, p62/actin assay activity (p62; [4]): 0/0; Activity (μM) 50, p62/actin assay activity (p62; [4]): 0/0; Activity (μM) 10, LC3 assay activity (LC3; [6]): 0/0; Activity (μM) 20, LC3 assay activity (LC3; [7]): 0/0; Activity (μM) 50, LC3 assay activity (LC3; [7]): 0/0
4 | VCNACFHIWH [Compound 10] | – | – | – | – | – | – | Activity (μM) 10, p62/actin assay activity (p62; [3]): 0; Activity (μM) 20, p62/actin assay activity (p62; [4]): 0; Activity (μM) 50, p62/actin assay activity (p62; [4]): 0; Activity (μM) 10, LC3 assay activity (LC3; [6]): +; Activity (μM) 20, LC3 assay activity (LC3; [7]): ++; Activity (μM) 50, LC3 assay activity (LC3; [7]): +++
5 | VCNACFHIWH [Compound 52] | 0 | + | – | – | – | – | Activity (μM) 100, p62/actin assay activity (p62; [1]): 0; Activity (μM) 100, LC3 assay activity (LC3; [2]): +
6 | VCNACFHIWH [Compound 53] | +++ | ++ | – | – | – | – | Activity (μM) 100, p62/actin assay activity (p62; [1]): +++; Activity (μM) 100, LC3 assay activity (LC3; [2]): ++
7 | VCNACFHIWH [Compound 54] | ++ | 0 | ++ | 0 | – | – | Activity (μM) 10, p62/actin assay activity (p62; [1]): +; Activity (μM) 10, LC3 assay activity (LC3; [2]): 0
8 | VCNACFHIWH [Compound 55] | +++ | 0 | ++ | 0 | – | – | Activity (μM) 10, p62/actin assay activity (p62; [1]): 0/0; Activity (μM) 10, LC3 assay activity (LC3; [2]): 0/0
9 | VCNACFHIWH [Compound 56] | + | 0 | + | 0 | – | – | Activity (μM) 10, p62/actin assay activity (p62; [1]): 0/0; Activity (μM) 10, LC3 assay activity (LC3; [2]): 0/0
10 | VCNACFHIWH [Compound 57] | + | 0 | + | 0 | – | – | Activity (μM) 10, p62/actin assay activity (p62; [1]): 0/0; Activity (μM) 10, LC3 assay activity (LC3; [2]): 0/0
11 | VCNACFHIWH [Compound 69] | ++ | +++ | 0/0 | 0/0 | 0/0* | 0/0* | –
12 | VCNACFHIWH [Compound 70] | 0 | + | 0/0 | 0/0 | 0/0* | 0/0* | –
13 | VCNACFHIWH [Compound 71] | 0 | +++ | 0 | ++ | 0 | + | –
14 | VCNACFHIWH [Compound 72] | + | ++ | 0/0 | 0/0 | 0/0* | 0/0* | –
15 | VCNACFHIWH [Compound 73] | + | +++ | 0 | + | 0/0* | 0/0* | –
16 | VCNACFHIWH [Compound 74] | +++/+++ | +++/+++ | 0 | ++ | 0 | + | –
17 | VCNATCHIRIWH (H-V[dC]NAT[dC]HIRIWH; linker 2-6 via MP (inferred); not fully specified (C-terminus); reading uncertain) [Compound 37] | 0/0 | 0/0 | – | – | – | – | Activity (μM) 100, p62/actin assay activity (p62; [1]): 0/0; Activity (μM) 100, LC3 assay activity (LC3; [2]): 0/0
18 | VCNATCHIWH [Compound 2] | 0 | + | 0/0 | 0/0 | 0/0* | 0/0* | Activity (μM) 10, p62/actin assay activity (p62; [3]): 0/0; Activity (μM) 20, p62/actin assay activity (p62; [4]): 0/0; Activity (μM) 50, p62/actin assay activity (p62; [4]): 0/0; Activity (μM) 100, p62/actin assay activity (p62; [4]): 0/0; Activity (μM) 10, LC3 assay activity (LC3; [6]): 0/0; Activity (μM) 20, LC3 assay activity (LC3; [7]): 0/0; Activity (μM) 50, LC3 assay activity (LC3; [7]): 0/0; Activity (μM) 100, LC3 assay activity (LC3; [7]): 0/0
